Data: paper PMC11602115 (Journal of Medicinal Chemistry, 2017)
One block for each molecule: values may come before it.

Assays:
[1] = biological target: T1, human DP1 receptor (Homo sapiens, UniProt Q13258); test: HTRF cAMP assay, recombinant human DP1 receptor in CHO-K1 cells; type: cell-based
T1 construct: expressed in transfected cells
T1 sequence (Q13258 1-359): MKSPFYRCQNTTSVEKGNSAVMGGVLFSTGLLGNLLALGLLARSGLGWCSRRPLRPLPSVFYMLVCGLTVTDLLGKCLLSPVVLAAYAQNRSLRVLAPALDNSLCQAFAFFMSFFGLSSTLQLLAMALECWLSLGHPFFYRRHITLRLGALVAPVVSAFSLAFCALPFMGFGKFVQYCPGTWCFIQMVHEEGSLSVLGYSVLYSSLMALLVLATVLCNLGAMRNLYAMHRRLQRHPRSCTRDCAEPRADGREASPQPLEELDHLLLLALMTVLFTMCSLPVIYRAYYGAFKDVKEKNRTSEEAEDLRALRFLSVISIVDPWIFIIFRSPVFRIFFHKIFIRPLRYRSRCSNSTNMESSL
Method: (§1) The new compounds were tested for functional agonist activity in a standard (Cisbio) cAMP assay using recombinant IP or DP1 receptors stably expressed in CHO-K1 cells. Clonal cell lines were derived following standard protocols, but receptor expression levels were kept to a minimum to preclude receptor reserve effects.
(§2) For development of cAMP accumulation assays, recombinant IP or DP1 receptors were stably expressed in CHO-K1 cells and clonal cell lines derived following standard protocols. Receptor expression levels were minimized to preclude receptor reserve effects. HTRF cAMP assays were performed according to the manufacturer’s instructions (Cisbio, cAMP Dynamic 2 assay kit; no. 62AM4PEJ). IP receptor-expressing cells were harvested, resuspended in assay buffer (PBS containing 1 mM IBMX and 0.2% BSA) at a density of 200 000 cells per mL, and dispensed into 384-well assay plates (PerkinElmer Proxiplate no. 6008280) at 5 μL per well. Test compounds were solubilized and serially diluted in DMSO using 5-fold dilutions to generate a 10-point dose–response curve with a top concentration of 10 μM. The samples were then further diluted in PBS to achieve a 2× stock. Diluted compounds were then transferred to a triplicate set of assay plates (5 μL per well). After a 1 h incubation at room temperature, 5 μL of cAMP-D2 reagent diluted in lysis buffer was added to each well followed by 5 μL of cryptate reagent. Plates were then incubated at room temperature for 1 h prior to reading. Time-resolved fluorescence measurements were collected on PerkinElmer Envision or BMG Pherastar microplate readers.

[2] = system: human platelet; test: Inhibition of ADP-induced human platelet aggregation; type: cell-based; conditions: aggregation induced by 2.5 μM ADP, mean of at least two determinations
Method: Such aggregated and activated platelets produce vasoactive substances such as thromboxane and serotonin that may cause harmful vasoconstriction and vascular remodeling.[13] […] This secondary assay was carried out as previously described,[14] with aggregation induced by 2.5 μM ADP in the presence or absence of IP receptor agonists.

[3] = Stability in human microsome preparations; type: in vitro ADME; conditions: incubation at 37 °C, human microsomes; read-out: human MS, T1/2
Excerpt: (§3) Table 1 Screening Data for Selected Analogues ^a | column: human and rat MS, T1/2 (min) ^g

[4] = Stability in rat microsome preparations; type: in vitro ADME; conditions: incubation at 37 °C, rat microsomes; read-out: rat MS, T1/2
Excerpt: as §3

[5] = system: prostaglandin receptors other than DP1; test: Panel assays of prostaglandin receptors in melanophores; type: cell-based
[6] = biological target: T2, IP (Homo sapiens, UniProt P43119); test: HTRF cAMP assay, recombinant human IP receptor stably expressed in CHO-K1 cells; type: cell-based; set-up: expressed in transfected cells; conditions: for Emax: CHO-K1, read-out: hIP % IA; for EC50: HTRF (cAMP) human IP receptor assay, mean of at least three determinations
T2 sequence (P43119 whole entry): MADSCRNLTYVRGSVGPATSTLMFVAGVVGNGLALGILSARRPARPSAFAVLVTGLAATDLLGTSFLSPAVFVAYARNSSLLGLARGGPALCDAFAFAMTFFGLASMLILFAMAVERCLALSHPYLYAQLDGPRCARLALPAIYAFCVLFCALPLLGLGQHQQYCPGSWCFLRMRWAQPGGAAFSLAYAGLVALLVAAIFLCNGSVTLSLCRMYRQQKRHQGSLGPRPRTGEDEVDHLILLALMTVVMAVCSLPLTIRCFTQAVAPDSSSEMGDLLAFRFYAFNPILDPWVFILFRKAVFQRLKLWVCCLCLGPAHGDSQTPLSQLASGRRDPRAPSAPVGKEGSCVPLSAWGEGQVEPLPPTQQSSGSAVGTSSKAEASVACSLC
Method: as §1, §2

[7] = biological target: T3, rat IP (Rattus norvegicus, UniProt P43253); test: HTRF cAMP assay, recombinant rat IP receptor; type: cell-based; set-up: expressed in transfected cells
T3 sequence (P43253 whole entry): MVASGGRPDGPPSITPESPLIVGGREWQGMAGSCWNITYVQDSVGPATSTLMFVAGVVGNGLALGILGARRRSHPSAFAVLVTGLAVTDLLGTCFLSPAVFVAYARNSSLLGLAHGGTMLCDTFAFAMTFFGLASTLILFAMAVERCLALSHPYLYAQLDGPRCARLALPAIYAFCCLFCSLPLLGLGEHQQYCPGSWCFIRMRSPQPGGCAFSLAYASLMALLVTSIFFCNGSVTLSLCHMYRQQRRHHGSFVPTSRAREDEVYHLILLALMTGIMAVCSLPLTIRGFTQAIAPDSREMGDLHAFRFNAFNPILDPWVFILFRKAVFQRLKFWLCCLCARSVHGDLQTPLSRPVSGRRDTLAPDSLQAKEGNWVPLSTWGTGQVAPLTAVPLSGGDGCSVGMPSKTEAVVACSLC
Method: as §1, §2

[8] = Incubation in simulated gastric fluid; type: physicochemical; conditions: room temperature, 3 h
Excerpt: (§4) A taurine-conjugated metabolite was subsequently identified in bile (M1, Figure 4), which was also observed in circulating plasma, although at much lower concentrations (∼5%) compared to parent. Further, two oxidized products, one of which was also a taurine-conjugate, were identified (M2 and M3) in plasma. […] It is known that taurine can be conjugated to bile acids and these conjugates may be hydrolyzed in the gut which allows for bile acid reabsorbtion.[19]

[9] = Metabolite profile of 5c in the rat; type: in vivo; conditions: rat, after dosing of 5c
Excerpt: as §4

[10] = biological target: T2, IP; test: Radioligand binding, human IP ([3H]-iloprost); set-up: expressed in transfected cells; host or cells: CHO-K1 (crude membranes); conditions: Figure 4; read-out: Ki hIP
Method: (§5) CHO-K1 cells expressing recombinant IP receptors were harvested, washed with ice-cold phosphate buffered saline, pH 7.4 (PBS), and then centrifuged at 48 000g for 20 min at 4 °C. The resulting cell pellet was then resuspended in ice-cold PBS containing 20 mM HEPES, pH 7.4, and 0.1 mM EDTA, homogenized on ice using a Brinkman Polytron, and centrifuged (48 000g for 20 min at 4 °C). This resuspension and centrifugation process was repeated one further time. Crude membrane pellets were stored at −80 °C until used for radioligand binding assays.
(§6) Assay incubations were terminated by rapid filtration through PerkinElmer GF/C filtration plates pretreated with 0.3% PEI, under vacuum pressure using a 96-well Packard filtration apparatus, followed by multiple washes with ice-cold wash buffer (PBS containing 20 mM HEPES and 0.1 mM EDTA, pH 7.4). Plates were then dried at 45 °C for a minimum of 2 h. Finally, 25 μL of BetaScint scintillation cocktail was added to each well and plates were counted in a Packard TopCount scintillation counter. In each competition study, test compounds were dosed at 10 concentrations with triplicate determinations at each test concentration.

[11] = biological target: T1, human DP1 receptor; conditions: earlier series; cited from earlier work
[12] = biological target: dog IP (Canis lupus familiaris, UniProt A0A8I3MUB8); test: Radioligand binding, dog IP ([3H]-iloprost); conditions: radioligand, recombinant receptor membranes; read-out: measured Kd, dog IP
Sequence of dog IP (A0A8I3MUB8 1-381): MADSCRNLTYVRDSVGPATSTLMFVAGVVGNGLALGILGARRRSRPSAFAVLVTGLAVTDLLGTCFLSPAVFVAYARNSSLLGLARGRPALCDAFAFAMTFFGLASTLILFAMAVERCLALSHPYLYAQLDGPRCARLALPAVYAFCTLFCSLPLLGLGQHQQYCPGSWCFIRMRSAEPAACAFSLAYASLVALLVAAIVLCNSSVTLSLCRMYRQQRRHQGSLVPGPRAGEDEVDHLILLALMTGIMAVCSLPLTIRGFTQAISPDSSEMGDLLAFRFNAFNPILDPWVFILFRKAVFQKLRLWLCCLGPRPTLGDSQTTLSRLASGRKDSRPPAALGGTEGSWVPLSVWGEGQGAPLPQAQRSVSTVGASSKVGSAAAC
Method: as §5
as §6, with “concentration. A reference compound, typically iloprost, was included in every runset for quality control purposes.” for “concentration.”

[13] = biological target: monkey IP; test: Radioligand binding, monkey IP ([3H]-iloprost); conditions: radioligand, recombinant receptor membranes; read-out: measured Kd, monkey IP
Method: as §5, §6

[14] = biological target: T3, rat IP; test: Radioligand binding, rat IP ([3H]-iloprost); set-up: expressed in transfected cells; host or cells: CHO-K1 (crude membranes); conditions: radioligand, recombinant receptor membranes; read-out: measured Kd, rat IP
Method: as §5
as §6, with “concentration. A reference compound, typically iloprost, was included in every runset for quality control purposes.” for “concentration.”

Emax ([1]; CHO-K1, intrinsic activity relative to 1 μM PGD2, read-out: hDP1 % IA): 59%
EC50 ([1]; HTRF (cAMP) human DP1 receptor assay, mean of at least three determinations, read-out: EC50 hDP1): 0.355 µM
IC50 [2]: 0.025 µM
half-life [3]: > 1 h
half-life [4]: > 1 h
Emax [6]: 77%
EC50 [6]: 0.021 µM
EC50 ([7]; HTRF (cAMP) rat IP receptor assay, mean of at least three determinations): 0.365 µM
Emax ([7]; read-out: rIP % IA): 89%
Molecule: O=C(O)COC[C@H]1CC[C@H](COC(=O)N(c2ccccc2)c2ccccc2)CC1 [5a, 2-(((1r,4r)-4-((Diphenylcarbamoyloxy)methyl)cyclohexyl)methoxy)acetic Acid]
activity at prostaglandin receptors other than DP1 [5]: no activity

chemical degradation to the parent in simulated gastric fluid [8]: little chemical degradation
concentration in circulating plasma compared to parent [9]: ~5%
Emax [6]: 76%
EC50 [6]: 0.93 µM
Ki [10]: 0.4 µM
Molecule: O=C(COC[C@H]1CC[C@H](COC(=O)N(c2ccccc2)c2ccc(Cl)cc2)CC1)NCCS(=O)(=O)O [M1, 2-(2-(((1r,4r)-4-(((4-Chlorophenyl)(phenyl)carbamoyloxy)methyl)cyclohexyl)methoxy)acetamido)ethanesulfonic Acid]

Molecule: O=C(O)COc1cccc2c1CC[C@H](Cn1ncc(-c3cccc(F)c3F)c(-c3ccc(F)cc3)c1=O)C2 [compound 3]
IP to DP1 selectivity ratio [11]: 8 fold

Molecule: [^3H]-iloprost [reference compound]
Kd [12]: 0.0154 µM
Kd [13]: 0.0119 µM
Kd [14]: 0.007 µM
